Measured values published in the NIST ThermoML archive (doi:10.1021/je800622e).
Numbers after ± are expanded uncertainties.

Assay: mn = molality of the nth substance listed, in mol/kg
Conditions: 298.15 K, 101 kPa, Liquid; for mass density: Pycnometric method; for molar conductivity: Alternating current cell with electrodes

mass density (m1 = 0.02)	mass density (m1 = 0.06)	mass density (m1 = 0.1)	mass density (m1 = 0.15)	mass density (m1 = 0.2)	mass density (m1 = 0.25)	molar conductivity (m1 = 0.05)	molar conductivity (m1 = 0.1)	molar conductivity (m1 = 0.15)	molar conductivity (m1 = 0.25)	molar conductivity (m1 = 0.5)	molar conductivity (m1 = 0.75)	molar conductivity (m1 = 1)	mass density (m1 = 0.05)	mass density (m1 = 0.5)	mass density (m1 = 0.75)	mass density (m1 = 1)	SMILES
999.72 ± 0.88 kg/m3	1004.87 ± 0.89 kg/m3	1009.9 ± 0.89 kg/m3	1016.06 ± 0.9 kg/m3	1022.12 ± 0.91 kg/m3	1027.95 ± 0.91 kg/m3	–	–	–	–	–	–	–	–	–	–	–	OC[C@H]1O[C@@](CO)(O[C@H]2O[C@H](CO)[C@@H](O)[C@H](O)[C@H]2O)[C@@H](O)[C@@H]1O [D-sucrose] + O
–	–	1000.85 ± 0.89 kg/m3	1002.63 ± 0.9 kg/m3	–	1006.1 ± 0.9 kg/m3	0.00906 ± 0.00054 S·m2/mol	0.0085 ± 0.00051 S·m2/mol	0.008 ± 0.00048 S·m2/mol	0.00714 ± 0.00043 S·m2/mol	0.00547 ± 0.00033 S·m2/mol	0.00419 ± 0.00025 S·m2/mol	0.00389 ± 0.00023 S·m2/mol	999 ± 0.89 kg/m3	1014.2 ± 0.91 kg/m3	1021.57 ± 0.91 kg/m3	1028.25 ± 0.92 kg/m3	CCCCn1cc[n+](C)c1.F[B-](F)(F)F [1-butyl-3-methylimidazolium tetrafluoroborate] + O
